Data on six compounds can be found in patent US20040214784A1, “Permeable, water soluble, non-irritating prodrugs of chemotherapeutic agents with oxaalkanoic acids” (UNIVERSITY OF KENTUCKY RESEARCH FOUNDATION, priority 1999, published 2004).

Series [1] is described as follows: Half-lives of hydrolysis of the prodrugs in human serum. The note with it: Half-life of hydrolysis.
A short description of series [2]: Half-lives of hydrolysis of the prodrugs in phosphate buffer at pH 7.4. The settings on record: pH 7.4, Half-life of hydrolysis.
Series [3] can be described thus: physchem. The note with it: buffer, pH 7.4, Half-life of hydrolysis.
Where [4] appears, read: Serum (to mono), hydrolysis to mono.
The mark [5] stands for this setting: Buffer (to mono), phosphate buffer at ph 7.4, hydrolysis to mono.

Turning to `O=C(COCCOCCO)Nc1ccn(C2CCC(COC(=O)COCCOCCO)O2)c(=O)n1` (stereo not drawn), the results for the half-life in series [1] (setting [4]) and in series [2] (setting [5]) were 0.0833 ± 0.0167 h and 20 h, respectively.

`COCCOCC(=O)OCC(=O)[C@@]12OC(C)(C)O[C@@H]1CC1C3CCC4=CC(=O)C=CC4(C)[C@@]3(F)[C@@H](O)CC12C` (stereo partly drawn) had a half-life in series [3] of 15 h.

For `COCCOCCOCC(=O)OCC(=O)[C@@]12OC(C)(C)O[C@@H]1CC1C3CCC4=CC(=O)C=CC4(C)[C@@]3(F)[C@@H](O)CC12C` (stereo partly drawn), the half-life in series [3] is 12 h.

Take `COCCOCCOCC(=O)OCn1cc(F)c(=O)n(COC(=O)COCCOCCOC)c1=O`: the results for the half-life in series [1] (setting [4]) and in series [2] (setting [5]) were 0.00833 h and 1.47 h, respectively.

With `CC1(C)O[C@@H]2CC3C4CCC5=CC(=O)C=CC5(C)[C@@]4(F)[C@@H](O)CC3(C)[C@]2(C(=O)COC(=O)COCC(=O)O)O1` (stereo partly drawn), the half-life in series [3] is 1 h.

Take `Nc1nc2c(ncn2COCCOC(=O)COCC(=O)OCCOCn2cnc3c(=O)[nH]c(N)nc32)c(=O)[nH]1`: the half-life in series [1] (Serum, bis to mono) was 4 h; in series [2] (Buffer, bis to mono, phosphate buffer at ph 7.4, bis to mono), 10 h.
